Experiments:
Assay in all cases: kinobeads assay with mass spectrometry detection of kinases (kinase selectivity profile)
Format in all cases: binding
kinases (kinome) [1] = biological target: T1, kinases (kinome) (Homo sapiens, UniProt P29323); conditions: EphB2 (TK), IPI00021275
T1 construct: determined in kinobeads assays with mass spectrometry detection of kinases as described previously; endogenous in cells; host or cells: cell lysate
T1 sequence (P29323 19-1055): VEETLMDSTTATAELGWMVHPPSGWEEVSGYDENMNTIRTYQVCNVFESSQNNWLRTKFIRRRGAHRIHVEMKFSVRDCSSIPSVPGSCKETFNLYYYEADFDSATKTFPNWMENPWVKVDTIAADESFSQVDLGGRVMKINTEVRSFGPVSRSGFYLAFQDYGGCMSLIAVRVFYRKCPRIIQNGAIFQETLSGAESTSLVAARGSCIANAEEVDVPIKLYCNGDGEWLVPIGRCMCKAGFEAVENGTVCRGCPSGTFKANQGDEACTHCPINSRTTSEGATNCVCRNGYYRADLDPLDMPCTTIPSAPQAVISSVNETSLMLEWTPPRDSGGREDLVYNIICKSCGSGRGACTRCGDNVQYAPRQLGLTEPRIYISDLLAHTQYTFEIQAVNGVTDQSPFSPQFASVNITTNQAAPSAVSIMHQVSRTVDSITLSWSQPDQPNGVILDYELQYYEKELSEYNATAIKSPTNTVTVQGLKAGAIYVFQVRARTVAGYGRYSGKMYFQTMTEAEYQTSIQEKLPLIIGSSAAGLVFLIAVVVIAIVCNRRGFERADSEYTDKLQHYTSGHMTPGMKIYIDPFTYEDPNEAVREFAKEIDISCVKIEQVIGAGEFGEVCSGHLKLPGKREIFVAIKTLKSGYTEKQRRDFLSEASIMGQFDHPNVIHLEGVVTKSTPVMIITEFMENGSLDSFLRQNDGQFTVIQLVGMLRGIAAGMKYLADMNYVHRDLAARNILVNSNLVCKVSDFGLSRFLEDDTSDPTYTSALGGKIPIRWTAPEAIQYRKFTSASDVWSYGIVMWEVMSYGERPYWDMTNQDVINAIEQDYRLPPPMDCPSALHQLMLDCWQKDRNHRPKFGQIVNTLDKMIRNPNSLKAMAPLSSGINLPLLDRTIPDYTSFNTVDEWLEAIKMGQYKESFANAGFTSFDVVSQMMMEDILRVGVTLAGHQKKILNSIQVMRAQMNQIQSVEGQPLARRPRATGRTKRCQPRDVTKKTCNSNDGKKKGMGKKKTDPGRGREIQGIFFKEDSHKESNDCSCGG
From the text: (§1) The protein kinase complement of the human genome (the kinome) was described previously (Manning et al., 2002. Science 298(5600):1912-1934). Sequence accession numbers are defined by the International Protein Index (IPI) (Kersey et al., 2004. Proteomics 4(7):1985-1988).

kinases (kinome) [2] = biological target: T2, kinases (kinome) (Homo sapiens, UniProt P36897); conditions: TGFbR1 (TKL), IPI00005733
T2 construct: determined in kinobeads assays with mass spectrometry detection of kinases as described previously; endogenous in cells; host or cells: cell lysate
T2 sequence (P36897 34-503): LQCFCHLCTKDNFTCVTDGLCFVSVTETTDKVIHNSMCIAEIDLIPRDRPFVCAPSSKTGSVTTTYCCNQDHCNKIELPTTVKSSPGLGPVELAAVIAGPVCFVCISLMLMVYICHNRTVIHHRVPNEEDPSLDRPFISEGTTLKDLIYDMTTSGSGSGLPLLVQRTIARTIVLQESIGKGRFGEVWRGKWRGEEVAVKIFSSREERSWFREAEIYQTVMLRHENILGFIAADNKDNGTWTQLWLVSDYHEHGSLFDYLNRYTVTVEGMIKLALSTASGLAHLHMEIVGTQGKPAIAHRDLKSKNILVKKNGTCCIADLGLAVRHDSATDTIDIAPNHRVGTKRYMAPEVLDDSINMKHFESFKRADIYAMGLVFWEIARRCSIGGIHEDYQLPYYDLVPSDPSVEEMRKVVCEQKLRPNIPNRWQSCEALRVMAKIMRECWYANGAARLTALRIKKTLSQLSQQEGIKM
From the text: as §1

kinases (kinome) [3] = biological target: T3, kinases (kinome) (Homo sapiens, UniProt P42336); conditions: PIK3Ca (Lipid Kinase), IPI00031386
T3 construct: determined in kinobeads assays with mass spectrometry detection of kinases as described previously; endogenous in cells; host or cells: cell lysate
T3 sequence (P42336 whole entry): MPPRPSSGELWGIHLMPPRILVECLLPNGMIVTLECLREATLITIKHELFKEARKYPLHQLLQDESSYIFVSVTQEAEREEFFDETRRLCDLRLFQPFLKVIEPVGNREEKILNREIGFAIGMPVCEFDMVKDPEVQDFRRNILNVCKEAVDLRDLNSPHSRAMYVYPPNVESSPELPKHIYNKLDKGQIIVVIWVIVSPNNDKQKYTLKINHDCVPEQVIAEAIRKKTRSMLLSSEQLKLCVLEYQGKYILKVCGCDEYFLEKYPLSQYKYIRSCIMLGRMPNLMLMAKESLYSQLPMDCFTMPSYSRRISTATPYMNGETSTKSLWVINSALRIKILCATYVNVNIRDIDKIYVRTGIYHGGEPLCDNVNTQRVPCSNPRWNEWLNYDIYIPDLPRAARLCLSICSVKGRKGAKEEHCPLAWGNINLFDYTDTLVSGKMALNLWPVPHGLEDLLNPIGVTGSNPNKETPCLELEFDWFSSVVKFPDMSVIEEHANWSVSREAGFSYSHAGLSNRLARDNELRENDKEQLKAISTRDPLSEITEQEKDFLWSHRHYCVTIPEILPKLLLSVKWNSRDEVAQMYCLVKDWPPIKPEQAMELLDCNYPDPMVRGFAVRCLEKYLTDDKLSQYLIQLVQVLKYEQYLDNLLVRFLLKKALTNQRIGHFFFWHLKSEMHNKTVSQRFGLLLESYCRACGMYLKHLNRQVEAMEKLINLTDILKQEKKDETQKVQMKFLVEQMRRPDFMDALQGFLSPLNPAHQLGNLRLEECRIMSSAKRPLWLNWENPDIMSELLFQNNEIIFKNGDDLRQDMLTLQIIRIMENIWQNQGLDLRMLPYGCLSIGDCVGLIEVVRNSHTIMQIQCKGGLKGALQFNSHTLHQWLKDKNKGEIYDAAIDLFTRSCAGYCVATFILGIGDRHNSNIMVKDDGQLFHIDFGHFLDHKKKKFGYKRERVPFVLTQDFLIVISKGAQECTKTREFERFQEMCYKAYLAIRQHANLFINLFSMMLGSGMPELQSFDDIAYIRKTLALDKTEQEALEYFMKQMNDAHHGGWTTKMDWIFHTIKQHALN
From the text: as §1

kinases (kinome) [4] = biological target: T4, kinases (kinome) (Homo sapiens, UniProt P43405); conditions: SYK (TK), IPI00018597
T4 construct: determined in kinobeads assays with mass spectrometry detection of kinases as described previously; endogenous in cells; host or cells: cell lysate
From the text: as §1

kinases (kinome) [5] = biological target: T5, kinases (kinome) (Homo sapiens, UniProt P45983); conditions: JNK1 (CMGC), IPI00220306
T5 construct: determined in kinobeads assays with mass spectrometry detection of kinases as described previously; endogenous in cells; host or cells: cell lysate
T5 sequence (P45983 whole entry): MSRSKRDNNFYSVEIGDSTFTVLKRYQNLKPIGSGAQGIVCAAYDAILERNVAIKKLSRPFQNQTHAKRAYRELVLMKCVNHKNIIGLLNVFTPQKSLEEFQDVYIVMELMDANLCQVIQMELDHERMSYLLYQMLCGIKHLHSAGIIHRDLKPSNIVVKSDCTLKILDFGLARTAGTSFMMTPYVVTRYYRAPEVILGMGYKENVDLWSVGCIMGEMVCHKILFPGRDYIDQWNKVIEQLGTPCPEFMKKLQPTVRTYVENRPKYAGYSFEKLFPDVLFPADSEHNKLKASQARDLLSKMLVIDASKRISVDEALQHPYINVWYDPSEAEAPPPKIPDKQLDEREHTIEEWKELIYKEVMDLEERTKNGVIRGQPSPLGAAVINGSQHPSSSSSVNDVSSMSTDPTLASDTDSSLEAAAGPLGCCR
From the text: as §1

kinases (kinome) [6] = biological target: T6, kinases (kinome) (Homo sapiens, UniProt Q13131); conditions: AMPKa1 (CAMK), IPI00410287
T6 construct: determined in kinobeads assays with mass spectrometry detection of kinases as described previously; endogenous in cells; host or cells: cell lysate
T6 sequence (Q13131 whole entry): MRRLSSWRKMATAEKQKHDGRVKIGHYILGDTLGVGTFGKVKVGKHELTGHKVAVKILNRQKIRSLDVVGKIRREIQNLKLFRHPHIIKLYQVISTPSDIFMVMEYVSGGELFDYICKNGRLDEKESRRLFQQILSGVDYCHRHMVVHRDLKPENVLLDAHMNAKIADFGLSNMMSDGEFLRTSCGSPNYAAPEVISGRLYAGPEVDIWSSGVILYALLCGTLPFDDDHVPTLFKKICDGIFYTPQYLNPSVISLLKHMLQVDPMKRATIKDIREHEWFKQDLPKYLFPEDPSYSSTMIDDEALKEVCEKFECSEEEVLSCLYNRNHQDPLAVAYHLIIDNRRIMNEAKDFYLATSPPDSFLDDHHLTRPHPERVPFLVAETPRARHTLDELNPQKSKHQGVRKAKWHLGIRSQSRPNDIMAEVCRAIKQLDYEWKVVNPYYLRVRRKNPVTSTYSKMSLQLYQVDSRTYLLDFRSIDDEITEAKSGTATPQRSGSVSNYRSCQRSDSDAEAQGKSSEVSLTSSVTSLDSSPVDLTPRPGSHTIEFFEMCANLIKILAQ
From the text: as §1

kinases (kinome) [7] = biological target: T7, kinases (kinome) (Homo sapiens, UniProt Q8TCG2); conditions: PIK4C2B (Lipid Kinase), IPI00291068
T7 construct: determined in kinobeads assays with mass spectrometry detection of kinases as described previously; endogenous in cells; host or cells: cell lysate
T7 sequence (Q8TCG2 whole entry): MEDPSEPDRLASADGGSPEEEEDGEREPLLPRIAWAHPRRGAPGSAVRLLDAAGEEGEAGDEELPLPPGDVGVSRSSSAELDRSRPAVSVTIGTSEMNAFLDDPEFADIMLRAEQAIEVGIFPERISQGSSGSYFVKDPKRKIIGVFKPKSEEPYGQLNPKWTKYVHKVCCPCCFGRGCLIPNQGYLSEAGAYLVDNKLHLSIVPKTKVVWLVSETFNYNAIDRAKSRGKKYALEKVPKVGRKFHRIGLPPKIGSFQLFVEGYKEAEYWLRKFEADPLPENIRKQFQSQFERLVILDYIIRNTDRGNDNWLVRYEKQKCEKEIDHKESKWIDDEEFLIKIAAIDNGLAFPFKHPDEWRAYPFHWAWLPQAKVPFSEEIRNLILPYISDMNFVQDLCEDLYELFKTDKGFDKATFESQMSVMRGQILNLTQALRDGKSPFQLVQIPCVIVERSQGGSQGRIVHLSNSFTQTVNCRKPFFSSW
From the text: as §1

kinases (kinome) [8] = biological target: T8, kinases (kinome) (Homo sapiens, UniProt Q9Y2K2); conditions: QSK (CAMK), IPI00657720
T8 construct: determined in kinobeads assays with mass spectrometry detection of kinases as described previously; endogenous in cells; host or cells: cell lysate
T8 sequence (Q9Y2K2 whole entry): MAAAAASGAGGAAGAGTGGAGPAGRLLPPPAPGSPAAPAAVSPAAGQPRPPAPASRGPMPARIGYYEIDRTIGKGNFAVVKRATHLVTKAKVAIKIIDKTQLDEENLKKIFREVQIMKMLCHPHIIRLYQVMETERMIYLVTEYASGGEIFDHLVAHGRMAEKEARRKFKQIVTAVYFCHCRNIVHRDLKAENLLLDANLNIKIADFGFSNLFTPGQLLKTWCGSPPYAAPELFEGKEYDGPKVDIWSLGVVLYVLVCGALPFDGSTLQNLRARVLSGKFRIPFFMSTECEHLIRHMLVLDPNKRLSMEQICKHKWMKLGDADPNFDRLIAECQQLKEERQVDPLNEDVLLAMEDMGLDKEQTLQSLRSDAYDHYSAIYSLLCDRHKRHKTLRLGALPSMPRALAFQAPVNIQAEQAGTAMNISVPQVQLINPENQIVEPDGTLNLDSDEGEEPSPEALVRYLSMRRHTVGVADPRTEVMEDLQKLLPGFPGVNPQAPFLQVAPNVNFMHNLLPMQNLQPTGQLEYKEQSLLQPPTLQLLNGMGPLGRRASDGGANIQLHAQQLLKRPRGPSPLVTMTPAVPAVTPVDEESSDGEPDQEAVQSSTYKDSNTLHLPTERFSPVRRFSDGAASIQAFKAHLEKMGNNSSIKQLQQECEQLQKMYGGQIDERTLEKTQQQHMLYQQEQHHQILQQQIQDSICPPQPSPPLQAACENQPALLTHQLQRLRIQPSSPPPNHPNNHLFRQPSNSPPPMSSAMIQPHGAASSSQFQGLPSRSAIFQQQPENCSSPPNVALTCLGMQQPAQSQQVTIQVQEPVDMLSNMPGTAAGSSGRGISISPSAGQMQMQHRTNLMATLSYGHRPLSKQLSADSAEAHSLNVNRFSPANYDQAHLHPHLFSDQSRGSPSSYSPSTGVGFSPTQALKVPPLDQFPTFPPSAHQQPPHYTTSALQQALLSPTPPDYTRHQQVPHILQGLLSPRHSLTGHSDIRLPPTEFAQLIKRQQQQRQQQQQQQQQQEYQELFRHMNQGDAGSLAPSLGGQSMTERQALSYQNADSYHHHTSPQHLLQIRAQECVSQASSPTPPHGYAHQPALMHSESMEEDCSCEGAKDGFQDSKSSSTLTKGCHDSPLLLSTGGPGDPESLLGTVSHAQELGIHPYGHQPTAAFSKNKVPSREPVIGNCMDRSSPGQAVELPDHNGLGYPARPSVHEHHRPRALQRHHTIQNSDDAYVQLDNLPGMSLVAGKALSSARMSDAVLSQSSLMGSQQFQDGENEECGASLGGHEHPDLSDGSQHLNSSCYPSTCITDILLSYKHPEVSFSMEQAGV
From the text: as §1

| IC50 (kinases (kinome) [1]) | IC50 (kinases (kinome) [2]) | IC50 (kinases (kinome) [3]) | IC50 (kinases (kinome) [4]) | IC50 (kinases (kinome) [5]) | IC50 (kinases (kinome) [6]) | IC50 (kinases (kinome) [7]) | IC50 (kinases (kinome) [8]) | Compound |
| --- | --- | --- | --- | --- | --- | --- | --- | --- |
| > 10 µM | > 10 µM | > 10 µM | > 10 µM | > 10 µM | > 10 µM | > 10 µM | > 10 µM | C[C@H]1COCCN1c1nc(-c2ccc(NC(=O)NC3CC3)cc2)cc(-c2cccnc2S(C)(=O)=O)n1 [Example 46, (S)-1-cyclopropyl-3-(4-(2-(3-methylmorpholino)-6-(2-(methylsulfonyl)pyridin-3-yl)pyrimidin-4-yl)phenyl)urea] |
| > 10 µM | > 10 µM | > 10 µM | > 10 µM | > 10 µM | > 10 µM | > 10 µM | > 10 µM | C[C@H]1COCCN1c1nc(-c2ccc(NC(=O)NC3CC3)cc2)cc(-c2ccccc2S(C)(=O)=O)n1 [Example 4, (S)-1-cyclopropyl-3-(4-(2-(3-methylmorpholino)-6-(2-(methylsulfonyl)phenyl)pyrimidin-4-yl)phenyl)urea] |
| > 10 µM | > 10 µM | > 10 µM | > 10 µM | > 10 µM | > 10 µM | > 10 µM | > 10 µM | C[C@H]1COCCN1c1nc(-c2ccc(NC(=O)NC3CC3)cc2)cc(-c2cc(F)ccc2S(C)(=O)=O)n1 [Example 40, (S)-1-cyclopropyl-3-(4-(6-(5-fluoro-2-(methylsulfonyl)phenyl)-2-(3-methylmorpholino)pyrimidin-4-yl)phenyl)urea] |
| > 10 µM | > 10 µM | > 10 µM | > 10 µM | > 10 µM | > 10 µM | > 10 µM | > 10 µM | C[C@H]1COCCN1c1nc(-c2ccc(NC(=O)N[C@H]3CCC[C@@H]3O)cc2)cc(-c2cc(F)ccc2S(C)(=O)=O)n1 [Example 76, 1-(4-(6-(5-fluoro-2-(methylsulfonyl)phenyl)-2-((S)-3-methylmorpholino)pyrimidin-4-yl)phenyl)-3-((1S,2S)-2-hydroxycyclopentyl)urea] |
| > 10 µM | > 10 µM | > 10 µM | > 10 µM | > 10 µM | > 10 µM | > 10 µM | > 10 µM | C[C@H]1COCCN1c1cc(-c2ccccn2)nc(-c2ccc(NC(=O)NCCO)cc2)n1 [Example 43, (S)-1-(2-hydroxyethyl)-3-(4-(4-(3-methylmorpholino)-6-(pyridin-2-yl)pyrimidin-2-yl)phenyl)urea] |
| > 10 µM | > 10 µM | > 10 µM | > 10 µM | > 10 µM | > 10 µM | > 10 µM | > 10 µM | C[C@H]1COCCN1c1cc(-c2ccccc2S(C)(=O)=O)nc(-c2ccc(NC(=O)NC3CC3)cc2)n1 [Example 6, (S)-1-cyclopropyl-3-(4-(4-(3-methylmorpholino)-6-(2-(methylsulfonyl)phenyl)pyrimidin-2-yl)phenyl)urea] |
| > 10 µM | > 10 µM | > 10 µM | > 10 µM | > 10 µM | > 10 µM | > 10 µM | > 10 µM | CCNC(=O)Nc1ccc(-c2cc(-c3ccccc3C#N)nc(N3CCOC[C@@H]3C)n2)cc1 [Example 8, (S)-1-(4-(6-(2-cyanophenyl)-2-(3-methylmorpholino)pyrimidin-4-yl)phenyl)-3-ethylurea] |

Source: patent publication US9249129B2, “Morpholino substituted urea derivatives as mTOR inhibitors” (CELLZOME LIMITED, priority 2010, dated 2016)
